Reference: patent US20230085307A1, “PYRIDAZINONE COMPOUND AND HERBICIDE” (NISSAN CHEMICAL CORPORATION, priority 2019, published 2023)

Experiments:
lambsquarters [1] = experiment: Test Example 4: herbicidal effect by soil treatment (Table 19, symbol O); assay type: in vivo, lambsquarters (Chenopodium album); conditions: amount of applied herbicide 320 g/ha
Procedure, shortened: (§1)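 Herbicidal effect was rated 3 weeks after treatment, using the scoring criteria of an earlier test. The compound, formulated as an emulsion and diluted in water to a set herbicide amount, had been sprayed uniformly on soil over freshly sown seeds. Growth took place in a greenhouse at 25° C. to 30° C.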

oval-leafed pondweed = experiment: Test Example 1: herbicidal activity, application before weed generation under submerged conditions (Table 16, symbol C); assay type: in vivo, oval-leafed pondweed (Monochoria vaginalis); conditions: amount of applied herbicide 320 g/ha
Procedure, shortened: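 Emulsion formulation, water-diluted to set dose, was put onto the flooded surface (4 cm depth, alluvial soil) the same day weeds were sown and 2.5-leaf rice transplanted. After 3 weeks at 25-30 °C under glass, each species was rated 0 (≤5% kill) to 5 (≥90% kill).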

windgrass [2] = experiment: Test Example 4: herbicidal effect by soil treatment (Table 19, symbol L); assay type: in vivo, windgrass (Apera spica-venti); conditions: amount of applied herbicide 320 g/ha
Procedure, shortened: as §1

persian speedwell [3] = experiment: Test Example 4: herbicidal effect by soil treatment (Table 19, symbol R); assay type: in vivo, Persian speedwell (Veronica persica); conditions: amount of applied herbicide 320 g/ha
Procedure, shortened: as §1

persian speedwell [4] = experiment: Test Example 5: herbicidal effect by foliage application, plastic box (Table 20, symbol R); assay type: in vivo, Persian speedwell (Veronica persica); conditions: foliage application, 320 g/ha, three weeks after application
Procedure, shortened: (§2)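 Foliar spray test: emulsion formulation diluted in water to a set application rate, sprayed onto 14-day-old plants raised in diluvial soil at 25° C to 30° C under glass. Both herbicidal effect and crop effect rated visually three weeks later.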

late watergrass = experiment: Test Example 2: herbicidal activity, application during weed generation under submerged conditions (Table 17, symbol A); assay type: in vivo, late watergrass (Echinochloa oryzicola); conditions: AAH 320 g/ha; application during weed generation, submerged conditions
Procedure, shortened: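 Wagner pot, alluvial soil, 4 cm flood; mixed sowing of all species; greenhouse 25° C.–30° C. Emulsifiable formulation, water-diluted to predetermined dose, applied to paddy water at 1–2 leaf stage. Effect rated at 3 wk using the earlier test's scoring criteria.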

lambsquarters [5] = experiment: Test Example 5: herbicidal effect by foliage application, plastic box (Table 20, symbol O); assay type: in vivo, lambsquarters (Chenopodium album); conditions: foliage application, 320 g/ha, three weeks after application
Procedure, shortened: as §2

Chinese sprangletop = experiment: Test Example 3: herbicidal effect by foliage application, Wagner pot (Table 18, symbol D); assay type: in vivo, chinese sprangletop (Leptochloa chinensis); conditions: 320 g/ha
Procedure, shortened: (§3)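 Plants were sown in alluvial soil held under 0.1–0.5 cm standing water and grown 14 days in a greenhouse at 25–30 °C. An emulsifiable formulation, water-diluted to the set dose, was then sprayed onto the foliage, and effects were scored three weeks later using previously defined criteria.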

rice flat sedge = experiment: Test Example 3: herbicidal effect by foliage application, Wagner pot (Table 18, symbol E); assay type: in vivo, rice flat sedge (Cyperus iria); conditions: 320 g/ha
Procedure, shortened: as §3

velvetleaf [6] = experiment: Test Example 4: herbicidal effect by soil treatment (Table 19, symbol M); assay type: in vivo, velvetleaf (Abutilon theophrasti); conditions: amount of applied herbicide 320 g/ha
Procedure, shortened: as §1

chickweed = experiment: Test Example 4: herbicidal effect by soil treatment (Table 19, symbol P); assay type: in vivo, common chickweed (Stellaria media); conditions: amount of applied herbicide 320 g/ha
Procedure, shortened: as §1

barnyard grass = experiment: Test Example 3: herbicidal effect by foliage application, Wagner pot (Table 18, symbol H); assay type: in vivo, barnyard grass (Echinochloa crus-galli); conditions: 320 g/ha
Procedure, shortened: as §3

velvetleaf [7] = experiment: Test Example 5: herbicidal effect by foliage application, plastic box (Table 20, symbol M); assay type: in vivo, velvetleaf (Abutilon theophrasti); conditions: foliage application, 320 g/ha, three weeks after application
Procedure, shortened: as §2

Italian ryegrass = experiment: Test Example 5: herbicidal effect by foliage application, plastic box (Table 20, symbol K); assay type: in vivo, Italian ryegrass (Lolium multiflorum); conditions: foliage application, 320 g/ha, three weeks after application
Procedure, shortened: as §2

southern crabgrass = experiment: Test Example 5: herbicidal effect by foliage application, plastic box (Table 20, symbol F); assay type: in vivo, southern crabgrass (Digitaria ciliaris); conditions: foliage application, 320 g/ha, three weeks after application
Procedure, shortened: as §2

windgrass [8] = experiment: Test Example 5: herbicidal effect by foliage application, plastic box (Table 20, symbol L); assay type: in vivo, windgrass (Apera spica-venti); conditions: foliage application, 320 g/ha, three weeks after application
Procedure, shortened: as §2

green foxtail = experiment: Test Example 4: herbicidal effect by soil treatment (Table 19, symbol G); assay type: in vivo, green foxtail (Setaria viridis); conditions: amount of applied herbicide 320 g/ha
Procedure, shortened: as §1

SMILES	O: lambsquarters, herbicidal effect grade (lambsquarters [1])	Herbicidal effect, C: oval-leafed pondweed (oval-leafed pondweed)	L: windgrass, herbicidal effect grade (windgrass [2])	R: persian speedwell, herbicidal effect grade (persian speedwell [3])	R: persian speedwell, herbicidal effect grade (persian speedwell [4])	herbicidal effect rating, A: late watergrass (late watergrass)	O: lambsquarters, herbicidal effect grade (lambsquarters [5])	herbicidal effect on Chinese sprangletop (D) (Chinese sprangletop)	herbicidal effect on rice flat sedge (E) (rice flat sedge)	M: velvetleaf, herbicidal effect grade (velvetleaf [6])	P: chickweed, herbicidal effect grade (chickweed)	herbicidal effect on barnyard grass (H) (barnyard grass)	M: velvetleaf, herbicidal effect grade (velvetleaf [7])	K: Italian ryegrass, herbicidal effect grade (Italian ryegrass)	F: southern crabgrass, herbicidal effect grade (southern crabgrass)	L: windgrass, herbicidal effect grade (windgrass [8])	also measured
CCCC(=O)Oc1c(C)nn(C)c(=O)c1-c1c(-c2ccccc2)sc2cc(OC)ccc12 [3-062]	0 (Herbicidal rate of 5% or less (almost no effect))	4 (Herbicidal rate of 70% or more and less than 90%)	0 (Herbicidal rate of 5% or less (almost no effect))	4 (Herbicidal rate of 70% or more and less than 90%)	3 (Herbicidal rate of 40% or more and less than 70%)	0 (Herbicidal rate of 5% or less (almost no effect))	2 (Herbicidal rate of 20% or more and less than 40%)	1 (Herbicidal rate of 5% or more and less than 20%)	5 (Herbicidal rate of 90% or more (almost completely withered))	0 (Herbicidal rate of 5% or less (almost no effect))	4 (Herbicidal rate of 70% or more and less than 90%)	2 (Herbicidal rate of 20% or more and less than 40%)	3 (Herbicidal rate of 40% or more and less than 70%)	2 (Herbicidal rate of 20% or more and less than 40%)	0 (Herbicidal rate of 5% or less (almost no effect))	0 (Herbicidal rate of 5% or less (almost no effect))	
CCCC(=O)Oc1c(C)nn(C)c(=O)c1-c1c(-c2ccc(F)cc2OC)sc2cc(OC)ccc12 [3-077]	4 (Herbicidal rate of 70% or more and less than 90%)	5 (Herbicidal rate of 90% or more (almost completely withered))	3 (Herbicidal rate of 40% or more and less than 70%)	4 (Herbicidal rate of 70% or more and less than 90%)	3 (Herbicidal rate of 40% or more and less than 70%)	2 (Herbicidal rate of 20% or more and less than 40%)	4 (Herbicidal rate of 70% or more and less than 90%)	1 (Herbicidal rate of 5% or more and less than 20%)	5 (Herbicidal rate of 90% or more (almost completely withered))	0 (Herbicidal rate of 5% or less (almost no effect))	4 (Herbicidal rate of 70% or more and less than 90%)	5 (Herbicidal rate of 90% or more (almost completely withered))	4 (Herbicidal rate of 70% or more and less than 90%)	3 (Herbicidal rate of 40% or more and less than 70%)	0 (Herbicidal rate of 5% or less (almost no effect))	4 (Herbicidal rate of 70% or more and less than 90%)	
CCCC(=O)Oc1c(C)nn(C)c(=O)c1-c1c(-c2ccc(OC)cc2)sc2cc(OCC)ccc12 [3-092]	4 (Herbicidal rate of 70% or more and less than 90%)	3 (Herbicidal rate of 40% or more and less than 70%)	0 (Herbicidal rate of 5% or less (almost no effect))	5 (Herbicidal rate of 90% or more (almost completely withered))	5 (Herbicidal rate of 90% or more (almost completely withered))	0 (Herbicidal rate of 5% or less (almost no effect))	4 (Herbicidal rate of 70% or more and less than 90%)		4 (Herbicidal rate of 70% or more and less than 90%)	0 (Herbicidal rate of 5% or less (almost no effect))	5 (Herbicidal rate of 90% or more (almost completely withered))	0 (Herbicidal rate of 5% or less (almost no effect))	5 (Herbicidal rate of 90% or more (almost completely withered))	0 (Herbicidal rate of 5% or less (almost no effect))	0 (Herbicidal rate of 5% or less (almost no effect))	0 (Herbicidal rate of 5% or less (almost no effect))	G: green foxtail, herbicidal effect grade (green foxtail): 0 (Herbicidal rate of 5% or less (almost no effect))
CCCC(=O)Oc1c(C)nn(C)c(=O)c1-c1c(-c2ccc(C(F)(F)F)cc2)sc2cc(F)ccc12 [3-140]		3 (Herbicidal rate of 40% or more and less than 70%)			5 (Herbicidal rate of 90% or more (almost completely withered))	3 (Herbicidal rate of 40% or more and less than 70%)	4 (Herbicidal rate of 70% or more and less than 90%)	4 (Herbicidal rate of 70% or more and less than 90%)	5 (Herbicidal rate of 90% or more (almost completely withered))			5 (Herbicidal rate of 90% or more (almost completely withered))	5 (Herbicidal rate of 90% or more (almost completely withered))	0 (Herbicidal rate of 5% or less (almost no effect))	1 (Herbicidal rate of 5% or more and less than 20%)		Herbicidal effect by soil treatment, O: lambsquarters (lambsquarters [1]): 3 (Herbicidal rate of 40% or more and less than 70%); Herbicidal effect by soil treatment, L: windgrass (windgrass [2]): 0 (Herbicidal rate of 5% or less (almost no effect)); Herbicidal effect by soil treatment, R: persian speedwell (persian speedwell [3]): 0 (Herbicidal rate of 5% or less (almost no effect)); Herbicidal effect by soil treatment, M: velvetleaf (velvetleaf [6]): 0 (Herbicidal rate of 5% or less (almost no effect)); Herbicidal effect by soil treatment, G: green foxtail (green foxtail): 0 (Herbicidal rate of 5% or less (almost no effect)); Herbicidal effect by soil treatment, P: chickweed (chickweed): 0 (Herbicidal rate of 5% or less (almost no effect))
